Experiments:
RAW 264.7 cells [1] = assay: LDH cytotoxicity assay; assay type: cell-based, mouse; details: IP6 for 24 hours
Protocol: RAW cells 264.7 were seeded at a density of 20,000 cells/cm2 in 24-well plate and cultured for 24 h. After cell attachment, culture media was changed and different doses of) IP6 were added. Cells were cultured for additional 24 hours and culture media was collected to test cytotoxicity (LDH activity). LDH cytotoxicity assay was performed using the Cytotoxicity Detection Kit according to the manufacturer's protocol. This colorimetric assay quantifies activity of LDH released from the cytosol of damaged cells into the supernatant and thus serves as an index of cell death.
Results were presented relative to the LDH activity in the media of control cells (low control, 0% of cell death) and of cells treated with 1% Triton X-100 (high control, 100% death) using the equation: Cytotoxicity (%)=(exp value−low control)/(high control−low control)*100. 3. Cell Proliferation Assay

RAW 264.7 cells [2] = assay: Cell proliferation assay (BrdU incorporation); assay type: cell-based, mouse; details: IP6 for 24 hours, BrdU for 6 h
Protocol: RAW cells 264.7 were seeded at a density of 2,500 cells/well in a 96-well plate and cultured for 24 h. After cell attachment, culture media was changed and different doses of IP6 were added. Cells were cultured for additional 24 hours and BrdU was added for the last 6 hours. Incorporation of BrdU was determinated by Cell Proliferation ELISA kit as described by the manufacturer.

RAW 264.7 cells [3] = assay: RANKL-induced osteoclast (OCL) formation, TRAP staining; assay type: cell-based, mouse; details: 5 days
Protocol: Osteoclast-like cells were generated in culture from RAW 264.7 cells. 20,000 cells/cm2 were seeded in 24-well plates and placed in the CO2 incubator overnight to allow the cells to attach to the surface. After 24 h, the culture medium was replaced with media containing 100 ng/mL RANKL. Osteoclasts were successfully generated by dosing with RANKL every 48 h over the course of 5 days. To confirm the generation of multinucleated osteoclast-like cells, the cultured cells were stained for the enzyme TRAP using the TRAP-staining kit, according to the manufacturer's instructions. TRAP is the enzyme that has been used as a marker of osteoclast function for more than 20 years. TRAP-positive multinucleated osteoclasts were visualized by light microscopy and photographed. Each OCL formation assay was performed at least 3 times. To examine the effect of IP6 on OCL formation, 20,000 cells/cm2 were seeded in 24-well plates and, after 24 h, the culture medium was replaced with media containing 100 ng/mL RANKL and different doses of IP6 (0.1, 1, 10, 100 μM). Treatments were added after changing the media every 48 h over the course of 5 days. The effect of IP6 on OCL formation was assessed by analysis of the number of TRAP-positive cells, gene expression levels of osteoclast and functional markers, resorption activity on dentin discs and actin ring formation.

RAW 264.7 cells [4] = assay: Real-time RT-PCR of osteoclast gene and functional markers; assay type: cell-based, mouse; details: RANKL-treated cells, 5 days
Protocol: To examine the effect of IP6 on OCL formation, 20,000 cells/cm2 were seeded in 24-well plates and, after 24 h, the culture medium was replaced with media containing 100 ng/mL RANKL and different doses of IP6 (0.1, 1, 10, 100 μM). Treatments were added after changing the media every 48 h over the course of 5 days. The effect of IP6 on OCL formation was assessed by analysis of the number of TRAP-positive cells, gene expression levels of osteoclast and functional markers, resorption activity on dentin discs and actin ring formation.
Total RNA was isolated with Tripure from cells treated as describe above, following the instructions of the manufacturer. RNA was quantified using a spectrophotometer set at 260 nm (Nanodrop, Thermo Fisher Scientific Inc, US).
The same amount of total RNA ([…]) from each sample was reverse transcribed to cDNA at 37° C. for 60 minutes in a final volume of […], using High Capacity RNA to cDNA kit (Applied Biosystems, USA). Each cDNA was diluted 1/5 and aliquots, to avoid freezing and thawing cycles, were stored at −20° C. until the PCR reactions were carried out.
Real-time PCR was performed for two housekeeping genes: 18S rRNA, GAPDH; three osteoclast gene markers: TRAP, CalcR, CFMS; and four osteoclast functional markers: CtsK, MMP-9, Car2 and H+-ATPase.
Real-time PCR was performed in the Lightcycler 480® (Roche Diagnostics, Mannheim, Germany) using SYBR green detection. Each reaction contained 7 μl Lightcycler-FastStart DNA MasterPLUS SYBR Green I (containing Fast Start Taq polymerase, reaction buffer, dNTPs mix, SYBRGreen I dye and MgCl2), 0.5 μM of each, the sense and the antisense specific primers (Table 1) and 3 μl of the cDNA dilution in a final volume of 10 μl. The amplification program consisted of a preincubation step for denaturation of the template cDNA (5 min 95° C.), followed by 45 cycles consisting of a denaturation step (10 s 95° C.), an annealing step (10 s 60° C.) and an extension step (10 s 72° C.). After each cycle, fluorescence was measured at 72° C. A negative control without cDNA template was run in each assay.
To allow relative quantification after PCR, standard curves were constructed from standard reactions for each target and housekeeping genes. The crossing point readings for each of the unknown samples were used to calculate the amount of either the target or housekeeping relative to a standard curve, using the Second Derivative Maximum Method. Relative mRNA levels were calculated as the ratio of relative concentration for the target genes in the same sample using the Advanced Relative Quantification Method provided by the LightCycler 480 analysis software version 1.5 (Roche Diagnostics, Mannheim, Germany).

RAW 264.7 cells [5] = assay: Resorption pit assay on dentine discs; assay type: cell-based, mouse; details: 1 μM IP6 during osteoclastogenesis
Protocol: RAW 264.7 cells were seeded on dentine slices at a density of 20,000 cells/cm^2. To study the effect of IP6 on OCL formation cells were cultured with media containing 100 ng/mL RANKL and IP6 (1 μM) over the course of the entire experiment. To study the effect of IP6 on mature osteoclasts-like cells. OCLs were generated by dosing RAW 264.7 cells with RANKL over the course of 6 days and then treated with IP6 (1 μM) for 4 days. After the culturing period, cells were removed from the dentine slices by sonication in 0.1 N NaOH for 2 minutes, stained in hematoxylin for 40 seconds and washed in distilled water. The surface of each dentine slice was examined by light microscopy for evidence of lacunar resorption and quantitative analysis of the resorption area was performed with Image J software 1.44p (NIH, USA).

[6] = tested on: human umbilical cord mesenchymal stem cells (hUC-MSCs); assay: Real-time RT-PCR of osteoblast markers in hUC-MSCs under osteogenic conditions; assay type: cell-based; details: 4 μM IP6 for 19 days
Protocol: hUC-MSCs from two different donors were seeded (n=12) in 24-well plates and grown to confluence in growth media consisting of DMEM-LG supplemented with penicillin (50 IU/ml), streptomycin (50 μg streptomycin/mil) and 20% FBS. Cells were cultured at 37° C. in a humidified atmosphere of 5% CO2. At confluence (designated as day 0), cells were grown in differentiation media consisting of growth media supplemented with hydrocortisone (200 nM), ascorbic acid (50 μg/ml) and β-glycerophosphate (10 mM). Cell culture media, with or without IP6, was refreshed twice a week over a 19-day time period. The experimental procedure developed in example 5 was used. In this example, Real-time PCR was performed for two housekeeping genes: beta-actin, GAPDH; and four osteoblast markers: Runx2, Col1A, ALP and OC.

bone resorption = details: background statement; cited from earlier work
[7] = background statement; cited from earlier work

Q: For `O=P(O)(O)O[C@H]1[C@H](OP(=O)(O)O)[C@@H](OP(=O)(O)O)[C@H](OP(=O)(O)O)[C@@H](OP(=O)(O)O)[C@H]1OP(=O)(O)O` [IP6, Myo-inositol-1,2,3,4,5,6-hexakisphosphate], which “cell viability (LDH activity)” value (RAW 264.7 cells [1]) is on record?
A: without affecting

Q: What about the “cell proliferation (BrdU)” value (RAW 264.7 cells [2]) of the same molecule?
A: without affecting

Q: What about the “osteoclastogenesis induced by RANKL” value (RAW 264.7 cells [3]; 100 ng/mL RANKL) of the same molecule?
A: decreases

Q: What about the “number of TRAP positive cells” value (RAW 264.7 cells [3]; RANKL-treated cells) of the same molecule?
A: decreased

Q: What about the “MMP-9 mRNA levels” value (RAW 264.7 cells [4]) of the same molecule?
A: decreased

Q: What about the “TRAP mRNA levels” value (RAW 264.7 cells [4]) of the same molecule?
A: decreased

Q: And the “calcitonin receptor mRNA levels” value (RAW 264.7 cells [4])?
A: decreased

Q: And the “cathepsin K mRNA levels” value (RAW 264.7 cells [4])?
A: decreased

Q: And the “RANKL-induced osteoclast bone resorption ability” value (RAW 264.7 cells [5])?
A: inhibits

Q: And the “ALP mRNA levels compared to the control group” value [6]?
A: higher

Q: What about the “Col1A mRNA levels compared to the control group” value [6] of the same molecule?
A: lower

Q: And the “OC mRNA levels compared to the control group” value [6]?
A: higher

Q: What about the “Runx-2 mRNA levels compared to the control group” value [6] of the same molecule?
A: higher

Q: And the “osteoblast differentiation of hUC-MSCs” value [6]?
A: increases

Q: What about the “bone resorption in animal models of osteoporosis” value (bone resorption) of the same molecule?
A: inhibitor of bone resorption

Q: What about the hydroxyapatite dissolution [7] of the same molecule?
A: potent inhibitor

Reference: US9433710B2, “Biocompatible implant” (LABORATORIS SANIFIT, S. L., priority 2011, dated 2016)
